{"source": "patent US20050244335A1", "about": "“Methods and compositions related to increasing antitumor activity of chemotherapeutic agents” (priority 2004, published 2005)", "key": {"[1]": {"system": "human breast cancer MDA-MB-468 xenografts", "assay": "In vivo chemotherapy, breast cancer MDA-MB-468 xenograft model in nude mice", "details": "MDA-MB-468 model; agent alone", "text": "(§1) Cell Culture. […] All media contained 1% penicillin-streptomycin.\n(§2) Data and Statistical Analysis."}, "[2]": {"assay": "Pharmacokinetics and tissue distribution of carboplatin in CD-1 mice", "assay_type": "in vivo", "details": "carboplatin 60 mg/kg iv", "method": "Pharmacokinetic studies were carried out using a protocol similar to that previously described (Wang, 1999) using metabolism cages. Male CD-1 mice were pre-treated with DEX (s.c., 0.1 mg/day/mouse for 5 days) or saline (as controls), and, at 1 hr after the fifth dose of DEX, were given a single intravenously (i.v.) bolus administration of carboplatin (60 mg/kg) via a tail vein. At various times (5, 15, and 30 min, 1, 2, 4, 8, and 24 hr after drug dosing; 3 animals for each time point)), blood samples were collected in heparinized tubes and tissue samples removed. Plasma was separated by centrifugation at 20,000 g for 5 min. Tissues including liver, kidneys and spleen were immediately blotted on Whatman No. 1 filter paper, trimmed of extraneous fat or connective tissue, weighed, and homogenized in 0.9% NaCl physiological saline (5 mL per g of wet tissue weight). The resultant homogenates were stored at −70° C. until further analysis. Bone marrow cells were harvested by flushing the femurs with sterile physiological saline as reported previously (Zhang, 1993). The resultant bone marrow cell suspension was weighed and lysed by sonicating 5 times for periods of 10 sec. Following centrifugation at 20,000 g for 30 min, the supernatant was removed and stored at −70° C. until further analysis.\n[…] in biological samples was analyzed by an analytical procedure involving micro-filtration and reversed-phase HPLC (Bullen, 1992). 200 μL of plasma or tissue homogenates or bone marrow suspension was added to the reservoir of a Centrifree™ micropartition system. The latter was capped and centrifuged at 2,000 g for 5 min. All filtrates were transferred into a new micro centrifuge tube and 6 μL of the filtrates was injected onto the HPLC column. The HPLC system consisted of a Hewlett Packard 1050 ChemStation with a UV detector (Agilent 1050 series). Determination of Carboplatin was achieved using a LiChrosorb™ diol (10 μm, 250×4.6 mm) analytical column with a LiChroCART 100 RP-18 guard column. The mobile phase for plasma was composed of 98:2 acetonitrile: H2O (vol/vol) and 89:11 acetonitrile: 0.015% H3PO4 (vol/vol) for urine and tissue samples. The flow rates were 2 mL/min (for plasma) and 1.1 mL/min (for urine and tissue samples). The column elute was monitored by UV at 229 nm. Quantitation of plasma or tissue carboplatin was carried out by using an external standard curve (0-4,000.0 μg/mL) that was freshly prepared daily. Linear regression and correlation analysis were carried out to establish the standard peak-area/concentration curves for carboplatin.\nThe significance of the differences among treated groups and controls were analyzed by ANOVA."}, "[3]": {"system": "human cancer xenografts", "assay": "Six murine-human cancer xenograft models overall: efficacy and toxicity", "details": "nude mice; carboplatin 120 mg/kg, gemcitabine 160 mg/kg i.p.", "protocol": "Human cancer xenograft models were established using the methods reported previously (26-29). When confluence reached 80%, cultured LS174T, MCF-7, MDA-MB-468, U87-MG, A549 and H1299 cells were harvested from the monolayer cultures, washed with the above indicated serum-free medium and resuspended in the same medium with Matrigel® basement membrane matrix at a 3:1 ratio, and then injected subcutaneously (s.c.) (5×10^6 cells, total volume 0.2 mL) into the left inguinal area of the nude mice. The animals were monitored for activity, physical condition, determination of body weight, and measurement of tumor growth. Tumor growth was determined by caliper measurement in two perpendicular diameters of the implant every other day. Tumor weight (in g) was calculated by the formula, 1/2a×b^2 where “a” is the long diameter and “b” is the short diameter (in cm).\nNude mice bearing human cancer xenografts were randomly divided into various treatment and control groups (5 mice/group). In treatment groups, animals were pre-treated with DEX subcutaneously (s.c., 0.1 mg/day for 5 days, Day −4-0) or saline (as controls). Carboplatin was administered intraperitoneally (i.p.) at a single dose of 120 mg/kg (360 mg/m^2) on day 0.\nThe antitumor activity (tumor mass) and peripheral blood counts were expressed as mean and standard deviations and the significance of differences were analyzed by ANOVA.\nWhen mean tumor mass reached 44-68 mg, animals were treated with s.c. DEX at a dose of 0.1 mg/day for 5 days, followed by chemotherapy."}, "[4]": {"system": "human breast cancer MCF-7 xenografts", "assay": "In vivo chemotherapy, breast cancer MCF-7 xenograft model in nude mice", "details": "MCF-7 model; agent alone", "text": "as §1, §2"}}}
{"smiles": "N.N.O=C([O-])C1(C(=O)[O-])CCC1.[Pt+2]", "note": "[carboplatin]", "values": [{"measurement": "effect on tumor growth", "setting": "[1]", "value": "no effects on tumor growth"}, {"measurement": "AUC of carboplatin in spleen, DEX pretreated relative to control mice", "setting": "[2]", "value": "approximately 16.5%"}, {"measurement": "carboplatin AUC decrease in bone marrow, DEX pretreated vs control mice", "setting": "[2]", "value": 57.4, "unit": "%"}, {"measurement": "decrease of carboplatin uptake in liver by DEX pretreatment", "setting": "[2]", "value": 40, "unit": "%"}, {"measurement": "AUC", "setting": "[2]; bone marrow, DEX (+)", "value": 517160, "unit": "ng·h/mL"}, {"measurement": "CL", "setting": "[2]; bone marrow, DEX (+)", "value": 0.12, "unit": "mL/g/h"}, {"measurement": "Cmax", "setting": "[2]; bone marrow, DEX (+)", "value": 20610, "unit": "ng/mL"}, {"measurement": "T1/2", "setting": "[2]; bone marrow, DEX (+)", "value": 922.8, "unit": "min"}, {"measurement": "Vss", "setting": "[2]; bone marrow, DEX (+)", "value": 2.57, "unit": "mL/g"}, {"measurement": "AUC", "setting": "[2]; bone marrow, DEX (−)", "value": 901600, "unit": "ng·h/mL"}, {"measurement": "CL", "setting": "[2]; bone marrow, DEX (−)", "value": 0.07, "unit": "mL/g/h"}, {"measurement": "Cmax", "setting": "[2]; bone marrow, DEX (−)", "value": 20140, "unit": "ng/mL"}, {"measurement": "T1/2", "setting": "[2]; bone marrow, DEX (−)", "value": 1708, "unit": "min"}, {"measurement": "Vss", "setting": "[2]; bone marrow, DEX (−)", "value": 2.75, "unit": "mL/g"}, {"measurement": "AUC", "setting": "[2]; liver, DEX (+)", "value": 25020, "unit": "ng·h/mL"}, {"measurement": "CL", "setting": "[2]; liver, DEX (+)", "value": 2.40, "unit": "mL/g/h"}, {"measurement": "Cmax", "setting": "[2]; liver, DEX (+)", "value": 16550, "unit": "ng/mL"}, {"measurement": "T1/2", "setting": "[2]; liver, DEX (+)", "value": 23.4, "unit": "min"}, {"measurement": "Vss", "setting": "[2]; liver, DEX (+)", "value": 1.35, "unit": "mL/g"}, {"measurement": "AUC", "setting": "[2]; liver, DEX (−)", "value": 38710, "unit": "ng·h/mL"}, {"measurement": "CL", "setting": "[2]; liver, DEX (−)", "value": 1.55, "unit": "mL/g/h"}, {"measurement": "Cmax", "setting": "[2]; liver, DEX (−)", "value": 25440, "unit": "ng/mL"}, {"measurement": "T1/2", "setting": "[2]; liver, DEX (−)", "value": 23.4, "unit": "min"}, {"measurement": "Vss", "setting": "[2]; liver, DEX (−)", "value": 0.87, "unit": "mL/g"}, {"measurement": "AUC", "setting": "[2]; plasma, DEX (+)", "value": 42690, "unit": "ng·h/mL"}, {"measurement": "CL", "setting": "[2]; plasma, DEX (+)", "value": 1.41, "unit": "mL/g/h"}, {"measurement": "Cmax", "setting": "[2]; plasma, DEX (+)", "value": 227580, "unit": "ng/mL"}, {"measurement": "T1/2", "setting": "[2]; plasma, DEX (+)", "value": 7.8, "unit": "min"}, {"measurement": "Vss", "setting": "[2]; plasma, DEX (+)", "value": 0.26, "unit": "mL/g"}, {"measurement": "AUC", "setting": "[2]; plasma, DEX (−)", "value": 44180, "unit": "ng·h/mL"}, {"measurement": "CL", "setting": "[2]; plasma, DEX (−)", "value": 1.36, "unit": "mL/g/h"}, {"measurement": "Cmax", "setting": "[2]; plasma, DEX (−)", "value": 352620, "unit": "ng/mL"}, {"measurement": "T1/2", "setting": "[2]; plasma, DEX (−)", "value": 5.4, "unit": "min"}, {"measurement": "Vss", "setting": "[2]; plasma, DEX (−)", "value": 0.17, "unit": "mL/g"}, {"measurement": "AUC", "setting": "[2]; spleen, DEX (+)", "value": 56720, "unit": "ng·h/mL"}, {"measurement": "CL", "setting": "[2]; spleen, DEX (+)", "value": 1.06, "unit": "mL/g/h"}, {"measurement": "Cmax", "setting": "[2]; spleen, DEX (+)", "value": 17790, "unit": "ng/mL"}, {"measurement": "T1/2", "setting": "[2]; spleen, DEX (+)", "value": 49.2, "unit": "min"}, {"measurement": "Vss", "setting": "[2]; spleen, DEX (+)", "value": 1.25, "unit": "mL/g"}, {"measurement": "AUC", "setting": "[2]; spleen, DEX (−)", "value": 344110, "unit": "ng·h/mL"}, {"measurement": "CL", "setting": "[2]; spleen, DEX (−)", "value": 0.17, "unit": "mL/g/h"}, {"measurement": "Cmax", "setting": "[2]; spleen, DEX (−)", "value": 118730, "unit": "ng/mL"}, {"measurement": "T1/2", "setting": "[2]; spleen, DEX (−)", "value": 45, "unit": "min"}, {"measurement": "Vss", "setting": "[2]; spleen, DEX (−)", "value": 0.19, "unit": "mL/g"}, {"measurement": "death", "setting": "[3]", "value": "no death occurred"}, {"measurement": "tolerability by inspection and animal weights", "setting": "[3]", "value": "tolerated well"}, {"measurement": "effect on tumor growth", "setting": "[4]", "value": "limited effects on tumor growth"}]}
